Data as given in ChEMBL document CHEMBL2202954, “The effect of PLC-γ2 inhibitors on the growth of human tumour cells” (2012).

Tests used:
Assay type in all cases: functional
MDA-MB-468 = assay: Cytotoxicity against human MDA-MB-468 cells by SRB assay
SF-295 = assay: Cytotoxicity against human SF295 cells by SRB assay
NCI-H522 = assay: Cytotoxicity against human NCI-H522 cells by SRB assay
SR = assay: Cytotoxicity against human SR cells by SRB assay
RPMI-8226 = assay: Cytotoxicity against human RPMI8226 cells by SRB assay
MOLT-4 = assay: Cytotoxicity against human MOLT4 cells by SRB assay
K562 = assay: Cytotoxicity against human K562 cells by SRB assay
HL-60(TB) = assay: Cytotoxicity against human HL-60(TB) cells by SRB assay
CCRF-CEM = assay: Cytotoxicity against human CCRF-CEM cells by SRB assay

SMILES	GI50 (MDA-MB-468) [µM]	TGI (MDA-MB-468) [µM]	GI50 (SF-295) [µM]	TGI (SF-295) [µM]	GI50 (NCI-H522) [µM]	TGI (NCI-H522) [µM]	GI50 (SR) [µM]	TGI (SR) [µM]	GI50 (RPMI-8226) [µM]	TGI (RPMI-8226) [µM]	GI50 (MOLT-4) [µM]	TGI (MOLT-4) [µM]	GI50 (K562) [µM]	TGI (K562) [µM]	GI50 (HL-60(TB)) [µM]	TGI (HL-60(TB)) [µM]	GI50 (CCRF-CEM) [µM]	TGI (CCRF-CEM) [µM]	LC50 (NCI-H522) [µM]
Nc1c(C(=O)Nc2ccccc2F)sc2nc3c(cc12)C(=O)CCC3	0.238	0.952	0.57	85.7	0.44	3.31	1.8	> 100	1.8	> 100	1.8	> 100	1.8	> 100	1.8	> 100	1.8	> 100	
Cc1ccccc1NC(=O)c1sc2nc3c(cc2c1N)C(=O)CCC3	0.529	6.21	1.33		0.895	3.5	4.3	> 100	4.3	> 100	4.3	> 100	4.3	> 100	4.3	> 100	4.3	> 100	
Nc1c(C(=O)Nc2cccc(Cl)c2)sc2nc3c(cc12)C(=O)CCC3	0.045	0.622	0.213	0.781	0.19	0.788	0.2	> 100	0.2	> 100	0.2	> 100	0.2	> 100	0.2	> 100	0.2	> 100	
Nc1c(C(=O)Nc2ccccc2)sc2nc3c(cc12)C(=O)CCC3	0.15	0.583	0.372		0.15	0.402	0.52	> 100	0.52	> 100	0.52	> 100	0.52	> 100	0.52	> 100	0.52	> 100	68
Cc1cc(C)c(NC(=O)c2sc3nc4c(cc3c2N)C(=O)CCC4)c(C)c1	0.596	3.65	0.399		0.36	2.01	3.6	> 100	3.6	> 100	3.6	> 100	3.6	> 100	3.6	> 100	3.6	> 100	
Cc1ccc(Cl)cc1NC(=O)c1sc2nc3c(cc2c1N)C(=O)CCC3	2.74	8.76	2.33	7.44	2.17	4.95	3.5	> 100	3.5	> 100	3.5	> 100	3.5	> 100	3.5	> 100	3.5	> 100	
